Data: the kinase profiling compilation of Christmann-Franck et al. (2016)

What was measured:
Assay in all cases: KINOMEscan competition binding
Details in all cases: compound 10.0 µM; call rule not given here
CLK4 (human) = CLK4 (human) (UniProt Q9HAZ1)
CAMK1 (human) = CAMK1 (human) (UniProt Q14012)
PRKG2 (human) = PRKG2 (human) (UniProt Q13237)
MAP3K5 (human) = MAP3K5 (human) (UniProt Q99683)
AKT2 (human) = AKT2 (human) (UniProt P31751)
PLK1 (human) = PLK1 (human) (UniProt P53350)
PTK6 (human) = PTK6 (human) (UniProt Q13882)
RPS6KA1 KD1 (human) = RPS6KA1 KD1 (human) (UniProt Q15418)
PAK6 (human) = PAK6 (human) (UniProt Q9NQU5)
PTK2 (human) = PTK2 (human) (UniProt Q05397)
NEK7 (human) = NEK7 (human) (UniProt Q8TDX7)
CAMKK2 (human) = CAMKK2 (human) (UniProt Q96RR4)
STK25 (human) = STK25 (human) (UniProt O00506)
CAMK2G (human) = CAMK2G (human) (UniProt Q13555)
CLK1 (human) = CLK1 (human) (UniProt P49759)
EPHB4 (human) = EPHB4 (human) (UniProt P54760)
MUSK (human) = MUSK (human) (UniProt O15146)
NEK9 (human) = NEK9 (human) (UniProt Q8TD19)
MARK4 (human) = MARK4 (human) (UniProt Q96L34)
NEK6 (human) = NEK6 (human) (UniProt Q9HC98)
CAMK1G (human) = CAMK1G (human) (UniProt Q96NX5)
EPHA6 (human) = EPHA6 (human) (UniProt Q9UF33)
EPHB2 (human) = EPHB2 (human) (UniProt P29323)
PAK3 (human) = PAK3 (human) (UniProt O75914)
RPS6KA4 KD1 (human) = RPS6KA4 KD1 (human) (UniProt O75676)
ZAP70 (human) = ZAP70 (human) (UniProt P43403)
LTK (human) = LTK (human) (UniProt P29376)
BMPR1A (human) = BMPR1A (human) (UniProt P36894)
PTK2B (human) = PTK2B (human) (UniProt Q14289)
PLK3 (human) = PLK3 (human) (UniProt Q9H4B4)
FGFR4 (human) = FGFR4 (human) (UniProt P22455)
PAK7 (human) = PAK7 (human) (UniProt Q9P286)
PIM2 (human) = PIM2 (human) (UniProt Q9P1W9)
EPHA7 (human) = EPHA7 (human) (UniProt Q15375)
PRKG1 (human) = PRKG1 (human) (UniProt Q13976)
MAPK14 (human) = MAPK14 (human) (UniProt Q16539)
TYRO3 (human) = TYRO3 (human) (UniProt Q06418)
PRKCH (human) = PRKCH (human) (UniProt P24723)
PRKACB (human) = PRKACB (human) (UniProt P22694)
PIM1 (human) = PIM1 (human) (UniProt P11309)

Sequence of NEK9 (human) (Q8TD19 whole entry, looked up): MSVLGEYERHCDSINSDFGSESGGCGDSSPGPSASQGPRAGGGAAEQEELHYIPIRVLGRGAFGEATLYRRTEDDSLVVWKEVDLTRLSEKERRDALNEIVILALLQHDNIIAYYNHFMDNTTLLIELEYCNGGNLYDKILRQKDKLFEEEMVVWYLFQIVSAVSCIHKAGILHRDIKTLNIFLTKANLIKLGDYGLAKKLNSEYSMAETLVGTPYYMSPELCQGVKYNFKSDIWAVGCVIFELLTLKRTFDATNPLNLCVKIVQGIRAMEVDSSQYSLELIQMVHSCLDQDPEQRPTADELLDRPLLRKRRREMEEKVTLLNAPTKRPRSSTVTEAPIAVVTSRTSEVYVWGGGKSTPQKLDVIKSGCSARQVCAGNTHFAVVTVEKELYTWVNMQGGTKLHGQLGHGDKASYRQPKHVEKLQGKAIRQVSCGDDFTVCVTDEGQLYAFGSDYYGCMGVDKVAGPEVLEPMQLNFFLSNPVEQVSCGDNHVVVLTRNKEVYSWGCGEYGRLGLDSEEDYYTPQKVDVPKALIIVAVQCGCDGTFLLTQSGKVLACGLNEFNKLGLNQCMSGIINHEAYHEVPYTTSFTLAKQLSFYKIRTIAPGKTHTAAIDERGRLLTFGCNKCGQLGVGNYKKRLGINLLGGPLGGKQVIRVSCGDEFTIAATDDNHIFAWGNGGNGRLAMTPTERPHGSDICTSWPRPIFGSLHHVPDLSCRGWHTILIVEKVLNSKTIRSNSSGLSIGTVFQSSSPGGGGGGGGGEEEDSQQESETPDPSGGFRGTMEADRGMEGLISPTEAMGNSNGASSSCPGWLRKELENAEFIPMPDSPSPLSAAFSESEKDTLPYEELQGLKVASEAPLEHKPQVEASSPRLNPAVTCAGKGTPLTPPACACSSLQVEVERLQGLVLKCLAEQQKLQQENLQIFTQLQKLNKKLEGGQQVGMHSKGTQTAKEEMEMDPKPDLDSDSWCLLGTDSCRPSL
Sequence of RPS6KA4 KD1 (human) (O75676 whole entry, looked up): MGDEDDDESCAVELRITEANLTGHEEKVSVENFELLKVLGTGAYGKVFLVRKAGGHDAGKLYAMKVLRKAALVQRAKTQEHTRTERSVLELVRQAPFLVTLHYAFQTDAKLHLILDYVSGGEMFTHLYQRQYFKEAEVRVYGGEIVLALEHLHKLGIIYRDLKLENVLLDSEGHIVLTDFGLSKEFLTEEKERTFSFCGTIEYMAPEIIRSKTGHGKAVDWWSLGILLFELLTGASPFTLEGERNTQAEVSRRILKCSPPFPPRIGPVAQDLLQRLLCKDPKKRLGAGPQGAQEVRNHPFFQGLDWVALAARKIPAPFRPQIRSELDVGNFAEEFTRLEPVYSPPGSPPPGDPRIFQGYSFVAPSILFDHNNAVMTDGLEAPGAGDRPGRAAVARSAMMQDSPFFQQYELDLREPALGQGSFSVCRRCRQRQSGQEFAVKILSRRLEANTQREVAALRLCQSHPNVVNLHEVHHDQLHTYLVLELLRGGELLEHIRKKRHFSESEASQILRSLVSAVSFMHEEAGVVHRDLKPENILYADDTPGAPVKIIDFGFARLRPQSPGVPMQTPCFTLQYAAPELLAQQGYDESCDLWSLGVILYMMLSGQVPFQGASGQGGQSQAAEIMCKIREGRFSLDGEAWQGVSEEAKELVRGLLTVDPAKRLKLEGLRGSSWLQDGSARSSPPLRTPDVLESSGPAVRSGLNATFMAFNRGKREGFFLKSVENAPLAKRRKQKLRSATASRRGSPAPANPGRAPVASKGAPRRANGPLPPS
Sequence of EPHB4 (human) (P54760 whole entry, looked up): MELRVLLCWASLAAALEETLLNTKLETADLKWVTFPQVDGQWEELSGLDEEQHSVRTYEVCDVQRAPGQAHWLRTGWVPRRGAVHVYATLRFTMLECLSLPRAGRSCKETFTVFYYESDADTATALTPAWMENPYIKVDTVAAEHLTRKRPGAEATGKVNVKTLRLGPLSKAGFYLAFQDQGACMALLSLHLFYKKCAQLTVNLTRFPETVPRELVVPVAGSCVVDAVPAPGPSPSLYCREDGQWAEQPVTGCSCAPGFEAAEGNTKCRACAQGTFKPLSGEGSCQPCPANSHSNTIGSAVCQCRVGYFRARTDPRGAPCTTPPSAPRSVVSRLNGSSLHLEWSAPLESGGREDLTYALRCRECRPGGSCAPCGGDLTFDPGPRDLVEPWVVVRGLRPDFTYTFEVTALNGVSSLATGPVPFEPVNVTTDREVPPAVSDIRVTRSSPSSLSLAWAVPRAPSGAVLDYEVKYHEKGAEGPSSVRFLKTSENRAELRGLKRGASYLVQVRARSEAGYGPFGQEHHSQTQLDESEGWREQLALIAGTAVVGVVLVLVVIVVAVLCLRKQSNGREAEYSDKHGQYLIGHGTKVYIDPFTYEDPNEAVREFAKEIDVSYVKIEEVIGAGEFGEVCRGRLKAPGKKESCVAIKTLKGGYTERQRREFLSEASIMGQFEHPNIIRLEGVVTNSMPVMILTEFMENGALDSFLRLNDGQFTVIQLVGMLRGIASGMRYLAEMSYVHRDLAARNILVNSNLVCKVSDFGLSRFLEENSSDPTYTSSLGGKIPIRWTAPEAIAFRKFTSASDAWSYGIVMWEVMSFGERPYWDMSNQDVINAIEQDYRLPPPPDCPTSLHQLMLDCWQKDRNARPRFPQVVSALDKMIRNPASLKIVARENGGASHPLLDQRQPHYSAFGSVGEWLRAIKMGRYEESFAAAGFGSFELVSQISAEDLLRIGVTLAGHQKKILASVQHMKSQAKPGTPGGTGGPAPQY
Sequence of MAP3K5 (human) (Q99683 whole entry, looked up): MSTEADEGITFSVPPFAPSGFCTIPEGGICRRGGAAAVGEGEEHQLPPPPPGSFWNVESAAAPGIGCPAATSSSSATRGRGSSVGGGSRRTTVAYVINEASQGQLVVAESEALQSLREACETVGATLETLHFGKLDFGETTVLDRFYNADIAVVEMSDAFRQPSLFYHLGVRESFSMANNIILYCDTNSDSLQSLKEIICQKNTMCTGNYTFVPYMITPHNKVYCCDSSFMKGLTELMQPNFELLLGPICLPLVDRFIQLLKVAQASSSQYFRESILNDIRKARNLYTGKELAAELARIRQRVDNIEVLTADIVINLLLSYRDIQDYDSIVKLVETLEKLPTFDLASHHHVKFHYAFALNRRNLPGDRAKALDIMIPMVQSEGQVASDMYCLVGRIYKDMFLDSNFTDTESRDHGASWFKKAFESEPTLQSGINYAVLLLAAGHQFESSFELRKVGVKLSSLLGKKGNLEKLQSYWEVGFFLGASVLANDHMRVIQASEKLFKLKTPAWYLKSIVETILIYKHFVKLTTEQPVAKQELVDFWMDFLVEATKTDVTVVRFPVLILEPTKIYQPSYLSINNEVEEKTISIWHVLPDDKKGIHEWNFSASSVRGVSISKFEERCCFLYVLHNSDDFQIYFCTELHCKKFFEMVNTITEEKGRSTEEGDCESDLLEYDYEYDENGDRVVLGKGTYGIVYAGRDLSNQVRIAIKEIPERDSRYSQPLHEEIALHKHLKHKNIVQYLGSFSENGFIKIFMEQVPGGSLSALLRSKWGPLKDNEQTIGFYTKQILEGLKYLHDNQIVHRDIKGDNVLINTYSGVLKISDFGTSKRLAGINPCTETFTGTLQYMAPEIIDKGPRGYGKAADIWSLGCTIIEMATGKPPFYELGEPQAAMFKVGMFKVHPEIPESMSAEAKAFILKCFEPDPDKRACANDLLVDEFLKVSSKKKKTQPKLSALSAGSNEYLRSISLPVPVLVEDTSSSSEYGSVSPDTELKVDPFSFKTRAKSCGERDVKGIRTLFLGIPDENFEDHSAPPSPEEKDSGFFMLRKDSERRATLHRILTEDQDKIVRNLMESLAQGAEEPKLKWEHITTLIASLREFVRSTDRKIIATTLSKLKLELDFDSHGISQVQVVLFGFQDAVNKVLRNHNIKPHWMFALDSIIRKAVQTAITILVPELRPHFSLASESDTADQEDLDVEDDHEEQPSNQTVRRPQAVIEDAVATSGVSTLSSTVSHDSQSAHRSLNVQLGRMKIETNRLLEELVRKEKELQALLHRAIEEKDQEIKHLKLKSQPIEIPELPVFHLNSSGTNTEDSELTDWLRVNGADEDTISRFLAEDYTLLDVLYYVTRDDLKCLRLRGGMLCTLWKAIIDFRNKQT
Sequence of PAK7 (human) (Q9P286 whole entry, looked up): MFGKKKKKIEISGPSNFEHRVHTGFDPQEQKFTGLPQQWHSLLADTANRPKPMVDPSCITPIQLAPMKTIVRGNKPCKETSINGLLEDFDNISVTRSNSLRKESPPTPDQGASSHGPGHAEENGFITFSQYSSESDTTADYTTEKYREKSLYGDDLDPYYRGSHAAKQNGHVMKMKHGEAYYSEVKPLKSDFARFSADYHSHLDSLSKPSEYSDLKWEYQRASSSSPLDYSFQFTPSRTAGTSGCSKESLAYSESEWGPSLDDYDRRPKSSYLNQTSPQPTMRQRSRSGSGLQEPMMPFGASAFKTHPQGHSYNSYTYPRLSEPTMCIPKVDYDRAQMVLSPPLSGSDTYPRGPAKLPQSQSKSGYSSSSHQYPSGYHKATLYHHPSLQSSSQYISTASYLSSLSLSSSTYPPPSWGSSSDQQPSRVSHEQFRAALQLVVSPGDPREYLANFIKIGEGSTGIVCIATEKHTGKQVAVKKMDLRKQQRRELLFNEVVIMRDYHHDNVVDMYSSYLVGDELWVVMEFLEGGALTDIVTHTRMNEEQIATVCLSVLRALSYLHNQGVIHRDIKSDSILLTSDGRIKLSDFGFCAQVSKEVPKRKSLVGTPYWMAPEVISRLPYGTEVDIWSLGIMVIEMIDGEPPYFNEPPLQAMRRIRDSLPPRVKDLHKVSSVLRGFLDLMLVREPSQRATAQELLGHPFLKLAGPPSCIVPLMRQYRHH

| kinase still bound, per cent of control (CLK4 (human)) | kinase still bound, per cent of control (PRKG2 (human)) | kinase still bound, per cent of control (MAP3K5 (human)) | kinase still bound, per cent of control (AKT2 (human)) | kinase still bound, per cent of control (PLK1 (human)) | kinase still bound, per cent of control (PTK6 (human)) | kinase still bound, per cent of control (RPS6KA1 KD1 (human)) | kinase still bound, per cent of control (PAK6 (human)) | kinase still bound, per cent of control (CAMKK2 (human)) | kinase still bound, per cent of control (CAMK2G (human)) | kinase still bound, per cent of control (CLK1 (human)) | kinase still bound, per cent of control (EPHB4 (human)) | kinase still bound, per cent of control (MUSK (human)) | kinase still bound, per cent of control (EPHA6 (human)) | kinase still bound, per cent of control (EPHB2 (human)) | kinase still bound, per cent of control (RPS6KA4 KD1 (human)) | kinase still bound, per cent of control (ZAP70 (human)) | kinase still bound, per cent of control (LTK (human)) | kinase still bound, per cent of control (BMPR1A (human)) | SMILES | kinase still bound, per cent of control (NEK9 (human)) | further results |
| --- | --- | --- | --- | --- | --- | --- | --- | --- | --- | --- | --- | --- | --- | --- | --- | --- | --- | --- | --- | --- | --- |
| 0% | 0% | 1.4% | no effect (inactive) | 1.55% | 1.8% | 0% | 2.6% | 0.1% | 0.2% | 0% | 0.7% | 0% | 0% | 0.15% | 0% | no effect (inactive) | 0% | 4.35% | CCS(=O)(=O)Nc1ccc2c(c1)[C@H](/C(=N/c1ccc(CN3CCCCC3)cc1)c1ccccc1)C(=O)N2 | no effect (inactive) | kinase still bound, per cent of control (CAMK1 (human)): 8.3%; kinase still bound, per cent of control (PTK2 (human)): 0%; kinase still bound, per cent of control (NEK7 (human)): no effect (inactive); kinase still bound, per cent of control (STK25 (human)): 0.4%; kinase still bound, per cent of control (MARK4 (human)): 0%; kinase still bound, per cent of control (NEK6 (human)): no effect (inactive); kinase still bound, per cent of control (CAMK1G (human)): no effect (inactive); kinase still bound, per cent of control (PAK3 (human)): 0%; kinase still bound, per cent of control (PTK2B (human)): 0%; kinase still bound, per cent of control (PLK3 (human)): no effect (inactive); kinase still bound, per cent of control (FGFR4 (human)): 0%; kinase still bound, per cent of control (PAK7 (human)): 0%; kinase still bound, per cent of control (PIM2 (human)): no effect (inactive); kinase still bound, per cent of control (EPHA7 (human)): 0%; kinase still bound, per cent of control (PRKG1 (human)): 0.15%; kinase still bound, per cent of control (MAPK14 (human)): no effect (inactive); kinase still bound, per cent of control (TYRO3 (human)): 0.2%; kinase still bound, per cent of control (PRKCH (human)): 19.2%; kinase still bound, per cent of control (PRKACB (human)): 7%; kinase still bound, per cent of control (PIM1 (human)): 12.8% |
| no effect (inactive) | no effect (inactive) | no effect (inactive) | no effect (inactive) | no effect (inactive) | no effect (inactive) | no effect (inactive) | no effect (inactive) | no effect (inactive) | no effect (inactive) | no effect (inactive) | no effect (inactive) | no effect (inactive) | no effect (inactive) | no effect (inactive) | no effect (inactive) | no effect (inactive) | no effect (inactive) | no effect (inactive) | NC(=O)c1ccc(-c2cc(C(N)=O)c(N)c(-c3ccc(S(N)(=O)=O)cc3)c2)cc1 | no effect (inactive) | kinase still bound, per cent of control (CAMK1 (human)): no effect (inactive); kinase still bound, per cent of control (PTK2 (human)): no effect (inactive); kinase still bound, per cent of control (NEK7 (human)): no effect (inactive); kinase still bound, per cent of control (STK25 (human)): no effect (inactive); kinase still bound, per cent of control (MARK4 (human)): no effect (inactive); kinase still bound, per cent of control (NEK6 (human)): no effect (inactive); kinase still bound, per cent of control (CAMK1G (human)): no effect (inactive); kinase still bound, per cent of control (PAK3 (human)): no effect (inactive); kinase still bound, per cent of control (PTK2B (human)): no effect (inactive); kinase still bound, per cent of control (PLK3 (human)): no effect (inactive); kinase still bound, per cent of control (FGFR4 (human)): no effect (inactive); kinase still bound, per cent of control (PAK7 (human)): no effect (inactive); kinase still bound, per cent of control (PIM2 (human)): no effect (inactive); kinase still bound, per cent of control (EPHA7 (human)): no effect (inactive); kinase still bound, per cent of control (MAPK14 (human)): no effect (inactive); kinase still bound, per cent of control (TYRO3 (human)): no effect (inactive); kinase still bound, per cent of control (PRKCH (human)): no effect (inactive); kinase still bound, per cent of control (PIM1 (human)): no effect (inactive) |
| no effect (inactive) | no effect (inactive) | no effect (inactive) | no effect (inactive) | no effect (inactive) | no effect (inactive) | no effect (inactive) | no effect (inactive) | no effect (inactive) | no effect (inactive) | no effect (inactive) | no effect (inactive) | no effect (inactive) | no effect (inactive) | no effect (inactive) | no effect (inactive) | no effect (inactive) | no effect (inactive) | no effect (inactive) | O=C1Nc2ccccc2/C1=C/c1ccc[nH]1 | no effect (inactive) | kinase still bound, per cent of control (PTK2B (human)): no effect (inactive); kinase still bound, per cent of control (PLK3 (human)): no effect (inactive); kinase still bound, per cent of control (FGFR4 (human)): no effect (inactive); kinase still bound, per cent of control (PAK7 (human)): no effect (inactive); kinase still bound, per cent of control (PIM2 (human)): no effect (inactive); kinase still bound, per cent of control (EPHA7 (human)): no effect (inactive); kinase still bound, per cent of control (PRKG1 (human)): no effect (inactive); kinase still bound, per cent of control (MAPK14 (human)): no effect (inactive); kinase still bound, per cent of control (TYRO3 (human)): no effect (inactive); kinase still bound, per cent of control (PRKCH (human)): no effect (inactive); kinase still bound, per cent of control (PRKACB (human)): no effect (inactive); kinase still bound, per cent of control (PIM1 (human)): no effect (inactive) |
